Laboratory results as given in ChEMBL document CHEMBL2150933 (J Med Chem, 2012).
Activity calls are given as the source filed them. The rule behind the calls is not given here.

Columns and labels:
[1] = tested on: NCI-H460; assay: Cytotoxicity against human NCI-H460 cells after 48 hrs by SRB assay; format: functional; settings: NCI-H460, 48 h
[2] = tested on: SN12C; assay: Cytotoxicity against human SN12C cells after 48 hrs by SRB assay; format: functional
[3] = tested on: A549; assay: Cytotoxicity against human A549 cells after 48 hrs by SRB assay; format: functional; settings: A549, 48 h, read-out: pGI50 (converted)
[4] = Toxicity in ip dosed CD1 mouse administered as single dose; format: organism-based; settings: in vivo
[5] = Plasma concentration in CD1 mouse at 18 mg/kg, iv administered as single dose measured after 30 mins; format: ADME, organism-based; design: dose 18 mg/kg, route intravenous
[6] = Toxicity in iv dosed CD1 mouse administered as single dose; format: organism-based; settings: in vivo
[7] = tested on: SK-MEL-28; assay: Cytotoxicity against human SK-MEL-28 cells after 48 hrs by SRB assay; format: functional; settings: SK-MEL-28, 48 h
[8] = tested on: COLO 205; assay: Cytotoxicity against human COLO205 cells after 72 hrs by MTT assay; format: functional; settings: COLO 205, 72 h
[9] = tested on: UACC-62; assay: Cytotoxicity against human UACC62 cells after 48 hrs by SRB assay; format: functional; settings: UACC-62, 48 h
[10] = tested on: MOLT-4; assay: Cytotoxicity against human MOLT4 cells after 48 hrs by SRB assay; format: functional; settings: MOLT-4, 48 h
[11] = tested on: COLO 205; assay: Antitumor activity against human COLO205 cells xenografted in athymic nu/nu Harlan mouse assessed as tumor growth inhibition at 20 mg/kg, iv administered Q3D for 10 days relative to control; format: functional, organism-based; design: dose 20 mg/kg
[12] = tested on: SK-MEL-5; assay: Cytotoxicity against human SK-MEL-5 cells after 48 hrs by SRB assay; format: functional; settings: SK-MEL-5, 48 h
[13] = tested on: UACC-257; assay: Cytotoxicity against human UACC257 cells after 48 hrs by SRB assay; format: functional; settings: UACC-257, 48 h
[14] = tested on: Hs-578T; assay: Cytotoxicity against human Hs578T cells after 48 hrs by SRB assay; format: functional
[15] = tested on: RXF 393; assay: Cytotoxicity against human RXF393 cells after 48 hrs by SRB assay; format: functional; settings: RXF 393, 48 h
[16] = tested on: SF-295; assay: Cytotoxicity against human SF295 cells after 48 hrs by SRB assay; format: functional; settings: SF-295, 48 h, read-out: pGI50 (converted)
[17] = tested on: HCC 2998; assay: Cytotoxicity against human HCC2998 cells after 48 hrs by SRB assay; format: functional; settings: HCC 2998, 48 h
[18] = tested on: T47D; assay: Cytotoxicity against human T47D cells after 48 hrs by SRB assay; format: functional
[19] = tested on: Mus musculus; assay: Toxicity in athymic nu/nu Harlan mouse xenografted with human SK-MEL-2 cells assessed as change in body weight at 20 mg/kg, iv administered Q3D for 10 days relative to control; format: organism-based; design: dose 20 mg/kg, route intravenous; settings: in vivo, 240 h
[20] = tested on: Mus musculus; assay: Toxicity in iv dosed CD1 mouse administered Q3D for 8 days; format: organism-based; settings: in vivo, 192 h
[21] = tested on: COLO 205; assay: Antitumor activity against human COLO205 cells xenografted in athymic nu/nu Harlan mouse assessed as tumor growth inhibition at 10 mg/kg, iv administered Q2D for 10 days relative to control; format: functional, organism-based; design: dose 10 mg/kg
[22] = tested on: Mus musculus; assay: Toxicity in athymic nu/nu Harlan mouse xenografted with human COLO205 cells assessed as mortality at 20 mg/kg, iv administered Q3D for 10 days relative to control; format: organism-based, COLO 205; design: dose 20 mg/kg, route intravenous; settings: in vivo, 240 h
[23] = tested on: Mus musculus; assay: Toxicity in athymic nu/nu Harlan mouse xenografted with human COLO205 cells assessed as mortality at 10 mg/kg, iv administered Q2D for 10 days relative to control; format: organism-based, COLO 205; design: dose 10 mg/kg, route intravenous; settings: in vivo, 240 h
[24] = Plasma concentration in CD1 mouse at 18 mg/kg, iv administered as single dose measured after 120 mins; format: ADME, organism-based; design: dose 18 mg/kg, route intravenous
[25] = tested on: MDA-MB-468; assay: Cytotoxicity against human MDA-MB-468 cells after 48 hrs by SRB assay; format: functional; settings: MDA-MB-468, 48 h
[26] = tested on: M14; assay: Cytotoxicity against human M14 cells after 48 hrs by SRB assay; format: functional; settings: M14, 48 h
[27] = tested on: HL-60; assay: Cytotoxicity against human HL60 cells after 48 hrs by SRB assay; format: functional; settings: HL-60, 48 h
[28] = tested on: CAKI-1; assay: Cytotoxicity against human Caki1 cells after 48 hrs by SRB assay; format: functional; settings: CAKI-1, 48 h
[29] = tested on: LOX IMVI; assay: Cytotoxicity against human LOXIMVI cells after 48 hrs by SRB assay; format: functional
[30] = tested on: NCI-H23; assay: Cytotoxicity against human NCI-H23 cells after 48 hrs by SRB assay; format: functional; settings: NCI-H23, 48 h
[31] = tested on: SK-MEL-2; assay: Antitumor activity against human SK-MEL-2 cells xenografted in athymic nu/nu Harlan mouse assessed as tumor growth inhibition at 10 mg/kg, iv administered Q2D for 10 days relative to control; format: functional, organism-based; design: dose 10 mg/kg
[32] = tested on: BT-549; assay: Cytotoxicity against human BT549 cells after 48 hrs by SRB assay; format: functional; settings: BT-549, 48 h
[33] = tested on: OVCAR-8; assay: Cytotoxicity against human OVCAR8 cells after 48 hrs by SRB assay; format: functional; settings: OVCAR-8, 48 h, read-out: pGI50 (converted)
[34] = tested on: IGROV-1; assay: Cytotoxicity against human IGROV1 cells after 48 hrs by SRB assay; format: functional; settings: IGROV-1, 48 h
[35] = tested on: Mus musculus; assay: Toxicity in athymic nu/nu Harlan mouse xenografted with human SK-MEL-2 cells assessed as mortality at 10 mg/kg, iv administered Q2D for 10 days relative to control; format: organism-based; design: dose 10 mg/kg, route intravenous; settings: in vivo, 240 h
[36] = tested on: Mus musculus; assay: Toxicity in athymic nu/nu Harlan mouse xenografted with human SK-MEL-2 cells assessed as adverse reactions at 10 mg/kg, iv administered Q2D for 10 days relative to control; format: organism-based; design: dose 10 mg/kg, route intravenous; settings: in vivo, 240 h
[37] = tested on: HCT-116; assay: Cytotoxicity against human HCT116 cells after 48 hrs by SRB assay; format: functional; settings: HCT-116, 48 h
[38] = tested on: Mus musculus; assay: Toxicity in iv dosed CD1 mouse administered Q2D for 8 days; format: organism-based; settings: mouse, in vivo, 192 h
[39] = tested on: MDA-MB-435; assay: Cytotoxicity against human MDA-MB-435 cells after 48 hrs by SRB assay; format: functional; settings: MDA-MB-435, 48 h
[40] = tested on: NCI-H226; assay: Cytotoxicity against human NCI-H226 cells after 48 hrs by SRB assay; format: functional; settings: NCI-H226, 48 h
[41] = tested on: U-251; assay: Cytotoxicity against human U251 cells after 48 hrs by SRB assay; format: functional; settings: U-251, 48 h, read-out: pGI50 (converted)
[42] = tested on: DU-145; assay: Cytotoxicity against human DU145 cells after 48 hrs by SRB assay; format: functional; settings: DU-145, 48 h
[43] = tested on: UO-31; assay: Cytotoxicity against human UO31 cells after 48 hrs by SRB assay; format: functional; settings: UO-31, 48 h
[44] = tested on: Mus musculus; assay: Toxicity in athymic nu/nu Harlan mouse xenografted with human SK-MEL-2 cells assessed as adverse reactions at 20 mg/kg, iv administered Q3D for 10 days relative to control; format: organism-based; design: dose 20 mg/kg, route intravenous; settings: in vivo, 240 h
[45] = tested on: RPMI-8226; assay: Cytotoxicity against human RPMI8226 cells after 48 hrs by SRB assay; format: functional; settings: RPMI-8226, 48 h
[46] = Cytotoxicity against human NCI-ADR-RES cells after 48 hrs by SRB assay; format: functional

Work on `CO[C@@H]([C@@H]1Cc2cc3cc(O[C@H]4C[C@@H](O[C@H]5C[C@@H](O)[C@H](O)[C@@H](C)O5)[C@H](O)[C@@H](C)O4)c(C)c(O)c3c(O)c2C(=O)[C@H]1O[C@H]1C[C@@H](O[C@H]2C[C@@H](O[C@H]3C[C@H](O)[C@H](O)[C@@H](C)O3)[C@H](O)[C@@H](C)O2)[C@H](O)[C@@H](C)O1)[C@@H](O)C(C)=O` yielded a GI50 [1] of 17.8 nM, a GI50 [2] of 20.9 nM and a GI50 [3] of 20.4 nM. It also gave an MTD [4] of 200 mg/kg, a concentration at 0.5 h [5] of 1700 nM and an MTD [6] of 64 mg/kg. For the same compound, the GI50 [7] was 18.6 nM, the GI50 [8] was 300 nM and the GI50 [9] was 12 nM. For the same compound, the GI50 [10] was 19.9 nM, the TGI [11] was “Active” and the GI50 ([12]; read-out: GI50) was 16 nM. The GI50 ([12]; read-out: pGI50 (converted)) was 17 nM, the GI50 [13] was 41.7 nM and the GI50 [14] was 16.2 nM. It also gave a GI50 [15] of 29.5 nM, a GI50 [16] of 19.9 nM and a GI50 [17] of 16.2 nM. For the same compound, the GI50 [18] was 25.7 nM, the Activity [19] was “Non-toxic” and the MTD [20] was 24 mg/kg. The TGI [21] was “Active”, the Activity [22] was “Non-toxic” and the Activity [23] was “Non-toxic”. For the same compound, the concentration at 2 h [24] was under 100 nM, the GI50 [25] was 33.9 nM and the GI50 [26] was 45.7 nM. It also gave a GI50 [27] of 24 nM, a GI50 [28] of 138 nM and a GI50 [29] of 16.6 nM. For the same compound, the GI50 [30] was 22.4 nM, the TGI [31] was “Active” and the GI50 [32] was 18.2 nM. For the same compound, the GI50 [33] was 35.5 nM, the GI50 ([34]; read-out: GI50) was 10 nM and the GI50 ([34]; read-out: pGI50 (converted)) was 10.5 nM. For the same compound, the Activity [35] was “Non-toxic”, the Activity [36] was “Non-toxic” and the GI50 [37] was 16.6 nM. The MTD [38] was 12 mg/kg, the GI50 [39] was 23.4 nM and the GI50 [40] was 20.4 nM. The GI50 [41] was 18.6 nM, the GI50 [42] was 20.4 nM and the GI50 [43] was 69.2 nM. The Activity [44] was “Non-toxic”, the GI50 [45] was 16.2 nM and the GI50 [46] was 50100 nM.
